From publication PMC9084902, “Low-Molecular Weight Protamine Overcomes Chondroitin Sulfate Inhibition of Neural Regeneration” (Frontiers in Cell and Developmental Biology, 2022)
Entries after “also recorded” stand apart in the source; their conditions may differ.

Experiments:
hippocampal neurons [1] = test: neurite outgrowth on aggrecan substrate, hippocampal neurons; format: cell-based, Wistar rat; settings: 10 μg/ml, n = 3
Experimental: (§1) The cortex or hippocampus were obtained from 17 days-old Wistar rat embryos and transferred to ice-cold preparation solution. Neurons were further isolated exactly as described earlier in Sahu’s publication ([Sahu et al., 2019]). Primary rat cortical or hippocampal neurons (E17 Wistar rats) were cultured in 96-well plates at the density of 20000 cells/well in Neurobasal medium supplemented with B27 serum substitute, penicillin, streptomycin and L-glutamate for 2 days in vitro (DIV). The plates were precoated with aggrecan (5 ug/ml, 150 µl/well). Protamine or protamine peptides were added to the culture medium at different concentrations. To analyze the effect of protamine or its fragment on neurite outgrowth, the plates were coated with 10 μg/ml of protamine or LMWP. For the experiment with chondroitinase, the aggrecan-coated plates were treated with chondroitinase ABC (Amsbio AMS. E1028, lot CF0029) for 4 h followed by 2 times washing with PBS before cell plating, and the cell culture imaging was carried out after 3 DIV incubation with 4 uM LMWP added to the medium. Neurite outgrowth was imaged with phase contrast microscopy (Olympus IX70 microscope and Retiga 2000R digital camera) using both x10 and x20 objectives. Processes of neurons over the diameter of the neuronal soma were interpreted as neurites. Neurite length was measured with ImageJ software and averaged from 2 to 3 independent experiments with 1–2 technical replicas in each independent experiment.

hippocampal neurons [2] = test: neurite outgrowth on precoated plastic without aggrecan, hippocampal neurons; format: cell-based, Wistar rat; settings: precoated 10 μg/ml on plastic, no aggrecan, 2 days; about 70 neurons/replicate; p < 0.0001, n = 7
Experimental: as §1, with “Processes of neurons over the diameter of the neuronal soma were interpreted as neurites.” left out

cortical neurons = test: neurite outgrowth on chondroitinase ABC-treated aggrecan substrate, cortical neurons; format: cell-based, Wistar rat; settings: ChABC 4 h, 4 µM LMWP in medium, 3 DIV; p = 0.012, unpaired t-test, n = 6; Figure 5B
Experimental: as §1, with “Processes of neurons over the diameter of the neuronal soma were interpreted as neurites.” left out

[3] = tested on: mouse cervical hemisection model; test: vertical screen test, C5 hemisection, ICV delivery; format: in vivo, C57BL6/NHsd mouse; settings: n = 5–10
Experimental: (§2) The mouse was placed on the brink of a horizontal wire screen (25 × 22 cm, diameter of wires 2 mm spaced at 1 cm) faced to edge. Immediately after that the screen was turned vertically to place the mouse to the upside down position at the lower edge. The time that the animal needed to climb to the upper edge was measured during 1 min. If the animal was not able to climb up or fell down from the screen the maximum time 60 s was marked as the climbing time. The average parameter of three subsequent trials repeated with at least 1 min interval was used for data analysis.

[4] = tested on: mouse cervical hemisection model; test: cylinder test, C5 hemisection, ICV delivery; format: in vivo, C57BL6/NHsd mouse; settings: n = 5–10
Experimental: The mouse was placed into the glass cylinder of 13 cm in diameter and 15 cm high. A mirror was positioned at the angle behind the cylinder for better observation. The mouse was videotaped for the first 20 exploratory vertical rearings or for 5 min. The number of rearings in which the mouse used the right (impaired), the left or both limbs for support against the wall was measured. Paw preference was calculated as the ratio of total number of left limb use (left + both) to total number of right (impaired) limb use (right + both). A trial with less than 5 rearings within 5 min was excluded from the analysis.

[5] = tested on: mouse cervical hemicontusion model; test: vertical screen test, C5 hemicontusion, ICV delivery; format: in vivo, C57BL6/NHsd mouse; settings: n = 6–11
Experimental: as §2

[6] = tested on: mouse cervical hemicontusion model; test: frontpaw grip strength, C5 hemicontusion, subcutaneous delivery; format: in vivo, C57BL6/NHsd mouse; settings: 16 µg s.c. daily 49 days
Experimental: (§3) The effectiveness of systemically delivered LMWP in treatment of spinal cord trauma was tested in the cervical hemicontusion model (Figure 1B). Baseline behavior was assessed 1 week before the trauma surgery, and the results were used for balanced distribution of animals to the 3 experimental groups (“sham”, “trauma + PBS” and “trauma + LMWP”). Each housing cage contained animals from all three groups. Subcutaneous injections to the back area were started on the next day after the trauma and continued daily for 49 days. LMWP was injected subcutaneously at the 16 µg dose in 200 µl of sterile PBS. The groups “sham” and “trauma + PBS” got the same volume of PBS. Behavioral assessment was started 2 weeks after the trauma and finished at the week 12.

[7] = tested on: mouse cervical hemicontusion model; test: locomotor activity in open field, C5 hemicontusion, subcutaneous delivery; format: in vivo, C57BL6/NHsd mouse; settings: 15 min open field, 16 µg s.c. daily 49 days; n = 7–13
Experimental: as §3
To evaluate the locomotor activity the animals were released to the corner of a transparent plexiglas chamber (30 cm × 30 cm, MedAssiociates, St.Albans,VT; illumination about 100lx) for 15 min. The travelled distance and the time spent in vertical activity (exploratory rearings) were analyzed with the Activity Monitor v5.1 software (Med Associates, St. Albans, VT).

[8] = ICV LMWP 4 µl of 1 mg/ml daily, 6 days from day 3

VSRRRRRRGGRRRR [LMWP, low-molecular weight protamine]
reversal of the inhibitory effect of aggrecan on neurite outgrowth (comparison among fragments) (hippocampal neurons [1]; hippocampal neurons (E17 rat), 2 days on aggrecan, precoated with aggrecan or soluble in medium, about 70 neurons/replicate, normalized to control, Figure 2L): more effective in reversing the inhibitory effect of aggrecan than the 22 amino acid fragment or the full-length protamine | length of the longest neurite, versus uncoated control (hippocampal neurons [1]; precoated with aggrecan, 2 days, 10 neurons per condition per experiment, Supplementary Figure S1B,E): slightly reduces the length of the longest neurite | increase in number of branches (hippocampal neurons [1]; precoated with aggrecan, 2 days, 10 neurons per condition per experiment, Supplementary Figure S1C,F): 3 fold | total neurite length (hippocampal neurons [1]; precoated with aggrecan, 2 days, Figure 2 and Supplementary Figure S1A,D): increase in the total neurite length | total neurite length versus uncoated control (hippocampal neurons [2]): increased the total neurite length as compared to the parallel control cultures | effect of CS digestion of aggrecan by chondroitinase ABC on LMWP-induced neurite outgrowth (cortical neurons): significantly decreased the neurite outgrowth-promoting effect of LMWP; also recorded: abolished the activity of LMWP to enhance neurite outgrowth | climbing time in vertical screen, time course ([3]; ICV LMWP 4 µl of 1 mg/ml daily, 6 days from day 3, weeks 2-9): progressively reduced the climbing time | climbing time difference versus PBS-treated group ([3]; ICV LMWP, week 9, p = 0.0304, Kruskal-Wallis with Dunn's): reached a statistically significant level at the week 9 after the trauma | front paw use asymmetry (injured versus non-injured side) [4, 8]: reduction of front paw use asymmetry at the weeks 2, 4, 8 and 9 after the trauma; also recorded: less asymmetry in frontpaw use when the injured side was compared to the non-injured side | ipsilateral paw use [4, 8]: partially improved the ipsilateral paw use | ipsilateral paw use versus sham ([4]; ICV LMWP, week 2 p = 0.4201, week 4 p = 0.2766, week 8 p = 0.1092, week 9 p = 0.1659, PBS group differed from sham at all weeks): not significantly different from the sham animals | vertical climbing test, time course [5, 8]: progressive improvement in the vertical climbing test; also recorded: progressively improve the climbing function in the vertical screen test starting from the week 3 after the trauma induction | climbing time versus sham after second post-trauma week ([5]; ICV LMWP, week 3 p = 0.1508, week 4 p = 0.1311, week 5 p = 0.6967, PBS group differed from sham until week 5): did not reveal a significant difference after the second post-trauma week | grip strength versus PBS ([6]; week 6 p = 0.0449, week 9 p = 0.0221, one-way ANOVA with Tukey's): significantly increased grip strength parameters on the week 6 and the week 12; also recorded: significant increase of frontpaw grip strength in comparison with the PBS-treated animals on the weeks 6 and 9 | grip strength versus PBS, week 12 ([6]; week 12 p = 0.0558, one-way ANOVA with Tukey's): trend towards increased grip strength on the week 12 | general locomotor activity [7]: did not affect general locomotor activity
